# Tests used:
# [1] = tested on: MCF-7; test: MTT antiproliferative assay, 72 h, with or without estradiol; format: cell-based, human; conditions: 72 hours exposition; for IC50: Homo sapiens, MCF7, MTT
# Procedure: (§1) Anticancer activity of PDI A1-inhibitors has been also tested in vitro in antiproliferative essay in normoxic and hypoxic conditions as well in estrogen-stimulated cancer cells. In the experiment, cells were seeded on 96-well plates (Sarstedt, Germany) in appropriate culture medium at a density of 10^5 cells/mL 24 h before adding the tested compounds. Cells were treated with each compound in four concentrations in the range 0.1-100 ug/mL. […] After 72 h of compound treatment at 37° C., 5 % CO2 humid atmosphere and in wo different oxygen level conditions: 21% - normal and <1% - hypoxia. In some experiments, the MDA-MB-231 and MCF-7 cells were seeded with or without 200 nM estradiol and after 24 h the tested compounds were added. A previously described sulforhodamine B antiproliferative assay was used with minor modifications (Skehan P et al., 1990). Briefly, cells were fixed with 50 µL/well of 50% (w/v) trichloroacetic acid (Avantor Performance Materials, Gliwice, Poland). After 1 h incubation, plates were washed several times with tap water and 50 µL of 0.4% (w/v) solution of sulforhodamine B (Sigma-Aldrich, Germany) in 1% (v/v) acetic acid (Avantor Performance Materials, Gliwice, Poland) was added to each well. After 30 min incubation at room temperature, unbound dye was washed out with 1% (v/v) acetic acid, whereas bound dye was solubilized with 10 mM unbuffered TRIS (Avantor Performance Materials, Gliwice, Poland) solution. The entire procedure was performed using a BioTek EL-406 washing station (BioTek Instruments, USA). After additional 30 min, absorbance was read using a Biotek Hybrid H4 reader (BioTek Instruments, USA) at 540 nm wavelength. MTT assay was used alternatively for HL-60 cell line and in the experiment in which estrogens are added (specified in the table legend). Absorbance was measured using a Biotek Hybrid H4 reader at 570 nm wavelength for MTT assay.
# (§2) Compounds at each concentration were tested in triplicate in a single experiment and each experiment was repeated at least three times independently.
# (§3) Results of in vitro antiproliferative effects are shown in Table 3 and Table 4 and are presented as mean IC50 ± SD calculated using the Prolab-3 system based on Cheburator 0.4 software.
# (§4) Statistical analysis: Unpaired t test. *p<0.05 as compared to appropriate cells not pretreated with estradiol. MTT assay was used for antiproliferative activity assessment.
# [2] = tested on: MDA-MB-231; test: as above; format: cell-based, human; conditions: Homo sapiens, MDA-MB-231, 72 hours exposition, MTT
# Procedure: as §1, §2, §3, §4
# [3] = tested on: HT-29; test: Cell cycle and cell death analysis; format: cell-based, human
# Procedure: (§5) Cell cycle and cell death analysis has been performed as previously described (Milczarek M et al. , 2015). Compounds were tested 5 times independently. Obtained results were analyzed using BD FACSDiva 6.2 software.
# [4] = tested on: MCF-7; test: Sulforhodamine B antiproliferative assay, 72 h, normal and hypoxia; format: cell-based, human; conditions: Homo sapiens, MCF7; hypoxia (<1% of oxygen), 72-hour exposition; read-out: IC50 [µg/ml] MCF-7 hypoxia
# Procedure, shortened: (§6)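 Cells at 10^5 cells/mL were given four concentrations within 0.1-100 ug/mL for 72 h at 37° C., under 21% O2 (normal) or <1% O2 (hypoxia). Growth read by sulforhodamine B staining after TCA fixation (A540); MTT (A570) was used for estradiol (200 nM) runs. Mean IC50 ± SD from ≥3 independent triplicate experiments.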
# [5] = tested on: MDA-MB-231; test: as above; format: cell-based, human; conditions: Homo sapiens, MDA-MB-231, 72-hour exposition
# Procedure, shortened: as §6
# [6] = biological target: T1, PDI A1 (Homo sapiens, UniProt P07237); test: Insulin turbidometric assay, inhibition of PDI A1; format: biochemical; conditions: insulin reduction, turbidity at 650 nm, 60 min incubation at 37° C.; read-out: Inhibition of PDI A1 (EC 50)
# T1 construct: purchased Mybiosource; host or cells: E. coli
# Procedure, shortened: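 E. coli-expressed recombinant PDIA1 (10 ug/ml) preincubated with compound 60 min at 37 °C in phosphate buffer pH 7.6, 1 mM EDTA, DTT. Reaction started with insulin (0.15 mM final) and DTT (0.174 mM final). Insulin-reduction turbidity recorded at 650 nm over 120 s against PDI-free reference.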
# [7] = tested on: HL-60; test: MTT antiproliferative assay, 72 h; format: cell-based; conditions: Homo sapiens, 72 hours exposition, read-out: IC50 [µg/ml] HL-60 normal
# Procedure: as §1, §2, §3, §4
# [8] = tested on: HT-29; test: MTT antiproliferative assay, 72 h; format: cell-based; conditions: Homo sapiens, 72 hours exposition, read-out: IC50 [µg/ml] HT-29 normal
# Procedure: as §1, §2, §3, §4
# [9] = tested on: HT-29; test: Caspase-3/7 activity assay; format: cell-based, human; conditions: after 24 and 48 h of incubation; compared to control
# Procedure: (§7) Caspase-3/7 activity assay has been performed as previously described (Milczarek M et al., 2015) after 24 and 48 h of incubation with disclosed compounds. Compounds were tested in triplicate in a single experiment and each experiment was repeated three times independently. Results were normalized to the protein content using the SRB method and reported as mean relative caspase-3/7 activity compared to the control sample ± SD.
# [10] = tested on: Caco-2; test: Caspase-3/7 activity assay; format: cell-based, human; conditions: after 48 h treatment; compared to control
# Procedure: as §7
# [11] = tested on: Caco-2; test: Cell cycle and cell death analysis; format: cell-based; conditions: FIG. 1C
# Procedure: as §5
# [12] = tested on: Caco-2; test: Sulforhodamine B antiproliferative assay, 72 h; format: cell-based, human; conditions: Homo sapiens, Caco-2; normal (21% of oxygen), 72-hour exposition
# Procedure: In the experiment, cells were seeded on 96-well plates (Sarstedt, Germany) in appropriate culture medium at a density of 10^5 cells/mL 24 h before adding the tested compounds. Cells were treated with each compound in four concentrations in the range 0.1-100 ug/mL. […] Briefly, cells were fixed with 50 µL/well of 50% (w/v) trichloroacetic acid (Avantor Performance Materials, Gliwice, Poland). After 1 h incubation, plates were washed several times with tap water and 50 µL of 0.4% (w/v) solution of sulforhodamine B (Sigma-Aldrich, Germany) in 1% (v/v) acetic acid (Avantor Performance Materials, Gliwice, Poland) was added to each well. After 30 min incubation at room temperature, unbound dye was washed out with 1% (v/v) acetic acid, whereas bound dye was solubilized with 10 mM unbuffered TRIS (Avantor Performance Materials, Gliwice, Poland) solution. […] After additional 30 min, absorbance was read using a Biotek Hybrid H4 reader (BioTek Instruments, USA) at 540 nm wavelength.
# T1 sequence (P07237 18-508, species assumed): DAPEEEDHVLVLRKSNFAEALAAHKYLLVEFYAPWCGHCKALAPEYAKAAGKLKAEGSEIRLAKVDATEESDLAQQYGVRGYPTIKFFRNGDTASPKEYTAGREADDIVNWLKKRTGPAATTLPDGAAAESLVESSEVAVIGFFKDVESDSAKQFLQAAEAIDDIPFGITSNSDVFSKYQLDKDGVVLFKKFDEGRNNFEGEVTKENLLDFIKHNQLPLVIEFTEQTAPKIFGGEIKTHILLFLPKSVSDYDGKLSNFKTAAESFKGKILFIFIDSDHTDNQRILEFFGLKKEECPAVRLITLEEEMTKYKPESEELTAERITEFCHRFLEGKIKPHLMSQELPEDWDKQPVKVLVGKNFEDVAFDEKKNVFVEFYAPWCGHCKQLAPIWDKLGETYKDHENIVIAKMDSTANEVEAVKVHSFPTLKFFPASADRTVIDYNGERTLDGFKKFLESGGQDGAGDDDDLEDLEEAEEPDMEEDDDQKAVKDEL
structure (smiles),measurement,setting,value
"COC(=O)C1CN1S(=O)(=O)c1ccccc1 (centres unmarked) [Compound C-3251, Methyl 1-(benzenesulfonyl)aziridine-2-carboxylate]",Selectivity index (SI): IC50 of MCF-10A/ IC50 of MCF-7,[1],6.62
same,IC50,"[1]; 200 nM estradiol, read-out: IC50 [µg/ml] MCF-7 + estradiol",4 ± 0.2 µg/mL
same,IC50,"[1]; not pretreated with estradiol, read-out: IC50 [µg/ml] MCF-7 normal",3.9 ± 0.5 µg/mL
same,IC50,"[2]; 200 nM estradiol, read-out: IC50 [µg/ml] MDA-MB-231 + estradiol",29.7 ± 1.9 µg/mL
same,IC50,"[2]; not pretreated with estradiol, read-out: IC50 [µg/ml] MDA-MB-231 normal",26.6 ± 2.3 µg/mL
same,"Cell cycle distribution, HT-29",[3]; FIG. 1C,decreased HT-29 cells in G0/G1 and increased in G2/M phase
same,"Percentage of death cells, HT-29",[3]; FIG. 1D,increased significantly the percentage of death HT-29 cells
same,IC50,[4],7.9 ± 6.5 µg/mL
same,IC50,"[5]; hypoxia (<1% of oxygen), read-out: IC50 [µg/ml] MDA-MB-231 hypoxia",26.5 ± 1.3 µg/mL
same,IC50,"[5]; normal (21% of oxygen), read-out: IC50 [µg/ml] MDA-MB-231 normal",24 ± 6.4 µg/mL
same,EC50,[6],6 µM
same,IC50,[7],1.5 ± 0.1 µg/mL
same,IC50,[8],37.2 ± 8.4 µg/mL
same,"Caspase 3/7 activity, HT-29",[9],significantly increase caspase 3/7 activity
same,"Caspase 3/7 activity, Caco-2",[10],significantly increase caspase 3/7 activity
same,"Cell cycle distribution, CaCo-2",[11],increased the percentage of CaCo-2 cells in S cell cycle phase
same,IC50,[12],3.4 ± 0.2 µg/mL

# Reference: patent US20230039836A1, “AROMATIC SULPHONAMIDES DERIVATIVES THAT INHIBITS PDI A3, THEIR SYNTHESIS AND USE” (Uniwersytet Jagiellonski, priority 2020, published 2023)
